Assay results taken from the supplement of paper PMC10307832.

Assays:
Test in all cases: relative viability (nuclei count vs DMSO), 5 days (fraction); higher = more cells survive
Tosedostat + Crizotinib = compound: CC(C)C[C@@H](C(=O)N[C@H](C(=O)OC1CCCC1)c1ccccc1)[C@H](O)C(=O)NO [Tosedostat] + C[C@@H](Oc1cc(-c2cnn(C3CCNCC3)c2)cnc1N)c1c(Cl)ccc(F)c1Cl [Crizotinib] (partner 1 µM)
In short: (§1)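 After 5 days of treatment, lung cancer cells in 1536-well plates were fixed and stained in a single step (final 0.05% Triton X-100, 1% formaldehyde, 1 ug/ml Hoechst) and their nuclei counted on 4× images. Treatment had been applied by pin tool the day after seeding as one drug alone or as a fixed anchor-drug dose with five library-drug doses (not always all listed) in √10 steps. Relative viability is the nuclei count of treated wells divided by that of vehicle wells, and values are medians of duplicate plates.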

Tosedostat + Linsitinib = compound: CC(C)C[C@@H](C(=O)N[C@H](C(=O)OC1CCCC1)c1ccccc1)[C@H](O)C(=O)NO [Tosedostat] + C[C@]1(O)C[C@@H](c2nc(-c3ccc4ccc(-c5ccccc5)nc4c3)c3c(N)nccn32)C1 [Linsitinib] (partner 1 µM)
In short: as §1

[1] = compound: CC1=NN=C(O1)C2=NN=C(C=C2)N3CCC(CC3)OC4=C(C=CC(=C4)F)Cl + CC(=O)c1c(C)c2cnc(Nc3ccc(N4CCNCC4)cn3)nc2n(C2CCCC2)c1=O [Palbociclib] (partner 0.5 µM)
In short: as §1

[2] = compound: CC1=NN=C(O1)C2=NN=C(C=C2)N3CCC(CC3)OC4=C(C=CC(=C4)F)Cl + Nc1ncn([C@H]2C[C@H](O)[C@@H](CO)O2)c(=O)n1 [Decitabine] (partner 2 µM)
In short: as §1

Row | Cell Line | relative viability (Tosedostat + Crizotinib; first compound 0.02 µM) | relative viability (Tosedostat + Crizotinib; first compound 0.06325 µM) | relative viability (Tosedostat + Crizotinib; first compound 0.2 µM) | relative viability (Tosedostat + Crizotinib; first compound 0.6325 µM) | relative viability (Tosedostat + Crizotinib; first compound 2 µM) | relative viability (Tosedostat + Linsitinib; first compound 0.02 µM) | relative viability (Tosedostat + Linsitinib; first compound 0.06325 µM) | relative viability (Tosedostat + Linsitinib; first compound 0.2 µM) | relative viability (Tosedostat + Linsitinib; first compound 0.6325 µM) | relative viability (Tosedostat + Linsitinib; first compound 2 µM) | relative viability ([1]; first compound 0.253 µM) | relative viability ([1]; first compound 0.8 µM) | relative viability ([1]; first compound 2.53 µM) | relative viability ([1]; first compound 8 µM) | relative viability ([2]; first compound 0.253 µM) | relative viability ([2]; first compound 0.8 µM) | relative viability ([2]; first compound 2.53 µM) | relative viability ([2]; first compound 8 µM)
1 | HCC-15 | 0.939 | 0.836 | 0.834 | 0.777 | 0.635 | 0.826 | 0.876 | 0.848 | 0.831 | 0.672 | 0.427 | 0.392 | 0.414 | 0.418 | 0.497 | 0.5 | 0.493 | 0.457
2 | HCC-44 | 0.861 | 0.755 | 0.759 | 0.741 | 0.492 | 0.59 | 0.656 | 0.688 | 0.681 | 0.473 | 0.366 | 0.434 | 0.412 | 0.355 | 0.44 | 0.413 | 0.436 | 0.425
3 | HCC-78 | 0.298 | 0.337 | 0.324 | 0.371 | 0.391 | 0.397 | 0.608 | 0.429 | 0.458 | 0.573 | 0.454 | 0.366 | 0.473 | 0.457 | 0.491 | 0.43 | 0.397 | 0.509
4 | HCC-366 | 0.681 | 0.532 | 0.432 | 0.465 | 0.325 | 0.59 | 0.77 | 0.721 | 0.457 | 0.602 | 0.063 | 0.124 | 0.132 | 0.112 | 0.242 | 0.207 | 0.292 | 0.252
5 | HCC-827 | 0.954 | 0.933 | 0.977 | 0.888 | 0.756 | 0.966 | 0.934 | 0.976 | 0.857 | 0.909 | 0.317 | 0.283 | 0.355 | 0.3 | 0.342 | 0.298 | 0.183 | 0.282
6 | HOP-62 | 1.01 | 0.994 | 0.677 | 0.81 | 0.69 | 1.07 | 0.977 | 0.849 | 0.693 | 0.712 | 0.351 | 0.356 | 0.265 | 0.212 | 0.189 | 0.184 | 0.19 | 0.18
7 | IA-LM | 0.937 | 0.879 | 0.776 | 0.692 | 0.602 | 0.688 | 0.596 | 0.463 | 0.445 | 0.474 | – | – | – | – | – | – | – | –
8 | NCI-H522 | – | – | – | – | – | – | – | – | – | – | 1.1 | 1.01 | 0.65 | 1.05 | 0.629 | 0.624 | 0.573 | 0.65
9 | NCI-H596 | 0.968 | 1.07 | 1.13 | 1.15 | 0.825 | 1.21 | 1.07 | 1.22 | 1.05 | 1.06 | – | – | – | – | 1.01 | 0.977 | 1.08 | 0.762
10 | NCI-H1299 | 1.05 | 0.919 | 0.933 | 0.926 | 0.873 | 1.13 | 0.878 | 0.984 | 0.878 | 0.839 | – | – | – | – | – | – | – | –
11 | NCI-H1395 | – | – | – | – | – | 0.993 | 0.944 | 1.03 | 0.821 | 0.782 | 0.562 | 0.592 | 0.599 | 0.626 | 0.689 | 0.762 | 0.757 | 0.714
12 | NCI-H1563 | 0.877 | 0.998 | 0.893 | 1.07 | 0.917 | 1.25 | 1.16 | 1.26 | 1.29 | 1.4 | – | – | – | – | – | – | – | –
13 | NCI-H1648 | – | – | – | – | – | – | – | – | – | – | 0.258 | 0.278 | 0.263 | 0.244 | 0.378 | 0.465 | 0.433 | 0.473
14 | NCI-H1650 | 0.988 | 0.937 | 1.07 | 0.86 | 1.01 | – | – | – | – | – | 0.253 | 0.334 | 0.3 | 0.292 | 0.338 | 0.402 | 0.387 | 0.392
15 | NCI-H1703 | 1.15 | 0.643 | 0.548 | 0.38 | 0.597 | 0.56 | 0.628 | 0.553 | 0.556 | 0.473 | – | – | – | – | – | – | – | –
16 | NCI-H1793 | – | – | – | – | – | 0.678 | 0.984 | 0.711 | 0.641 | 0.873 | 0.304 | 0.314 | 0.342 | 0.301 | 0.468 | 0.482 | 0.343 | 0.452
17 | NCI-H2170 | 1.17 | 1.12 | 1.19 | 1.22 | 1.37 | – | – | – | – | – | 0.196 | 0.22 | 0.22 | 0.175 | 0.366 | 0.323 | 0.357 | 0.321
18 | NCI-H2228 | 0.599 | 0.438 | 0.48 | 0.418 | 0.445 | 0.792 | 0.63 | 0.686 | 0.612 | 0.525 | 0.675 | 0.394 | 0.681 | 0.538 | – | – | – | –
19 | NCI-H2342 | – | – | – | – | – | – | – | – | – | – | 0.478 | 0.491 | 0.458 | 0.417 | 0.579 | 0.552 | 0.528 | 0.5
20 | SW 900 | – | – | – | – | – | – | – | – | – | – | – | 0.574 | 0.504 | 0.463 | – | 0.467 | 0.395 | 0.426
